Laboratory results: patent publication US20120029054A1, “RNA Interference Mediated Inhibition of GATA Binding Protein 3 (GATA3) Gene Expression Using Short Intefering Nucleic Acid (siNA)” (Merck Sharp & Dohme Corp., priority 2009, published 2012)

How the values were obtained:
[1] = test system: GATA3 mRNA; assay: GATA3 mRNA knock-down (Taqman qRT-PCR) after RNAiMax transfection of human MCF7 cells; screen and IC50 dose response; format: cell-based; conditions: for % KD Human: 10 nM siNA, 24 hrs; for % KD Human / IC50: MCF7 cells; for IC50 / % KD GATA3 mRNA at 10 nM / % KD GATA3 10 nM: mean ± S.D.; for % KD GATA3 mRNA at 10 nM: Table 4, MCF7 cells, no assay mark printed (same values marked * in Table 3); for % KD GATA3 10 nM: Table 5, MCF7 cells, three experiments, no assay mark printed
In short: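 MCF7 cells (5000/well, 24 h) transfected with siNA–RNAiMax complexes at 10 nM final siNA for 24 h without media change. GATA3 mRNA measured by TaqMan qRT-PCR, alongside β-actin and GAPDH probes. % knock-down by comparative Ct (2^−ΔΔCt) relative to non-targeting control siNA.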

[2] = test system: GATA3 protein; assay: GATA3 Western Blot in transfected MCF7 cells (6-well plate); format: cell-based, human; conditions: 30 nM, 48 hours, average band ratio ± S.D.
Protocol: MCF7 cells were plated in 6-well plates at final counts of 70,000 cells/well in 2 ml of complete growth media. Transfection was performed using 2.5 uL of RNAiMax per well. Final concentration of siNAs was 30 nM (screen) and 30, 0.3, and 0.003 nM (dose response study). Protein lysates were harvested 24, 48, and 72 hours post-transfection (screen) and 72 hours post-transfection (dose response study). Protein lysates were prepared using Cell Disruption Buffer from the PARIS kit (Ambion, cat #1921) according to manufacturer's instructions. Protein concentration was measured using a Bradford Quick Start Kit (Bio-Rad, cat#500-0205).
The protein source for the Western Blot experiments were from transfection of MCF7 cells in a 6 well plate, as described above.
Protein samples were diluted 1:1 in 2× Laemmli buffer with 5% β-mercapto-ethanol and incubated at 95° C. for 5 minutes. 20-40 ug of protein was loaded in each lane of 10% Tris-HCl gel. One lane was designated for MagicMark Protein Standard (Invitrogen # LC5602). The gel was run at 100V for approximately 2 hours. Protein was transferred to a PVDF membrane at 100V for 60 minutes. Once the transfer was finished, the membrane was blocked in 1% Casein in PBS (BioRad Cat#161-0783) for 1 hour on a plate rocker at room temperature followed by the overnight incubation at 4° C. with mouse monoclonal anti-GATA3 primary antibody (Santa Cruz Biotechnology, cat# HG3-31) diluted 1:500 in 1% Casein in PBS. On the next day, the blot was washed 4×5 minutes in PBST (0.1% Tween-20 in PBS) solution and incubated for 30 minutes at room temperature with goat anti-mouse secondary antibody (Pierce Biotechnology, cat#3 31430) diluted 1:20,000 in 1% Casein. […]
The protein bands were quantified by computing their density which is defined by the ratio between the total intensity of all pixels and the area of the rectangle drawn around each band (intensity/mm^2). The density was calculated by the BioRad software.
The level of protein was quantified using the Bio-Rad VersaDoc Imager according to the protocols of that piece of equipment. […]

[3] = test system: GATA3 mRNA; assay: GATA3 mRNA knock-down (Taqman qRT-PCR) after RNAiMax transfection of mouse RAG cells; format: cell-based; conditions: 10 nM siNA, 24 hrs, average of 2 experiments
In short: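 Murine RAG cells, 5000/well, transfected 24 h after plating with siNA (10 nM final) complexed with RNAiMax, harvested after 24 h. GATA3 mRNA quantified by TaqMan qRT-PCR with GAPDH reference; % knock-down by comparative Ct (2^−ΔΔCt) versus non-targeting control siNA.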

[4] = test system: human GAPDH mRNA; assay: GAPDH specificity screen in human MCF7 cells (β-Actin normalised qRT-PCR); format: cell-based; conditions: normalised to β-Actin, three experiments, mean ± S.D.
Protocol: A series of probes and primers were used to detect the various mRNA transcripts of the genes of β-Actin (human cell line only), and of GATA3 and GAPDH in mouse and human cell lines. All Taqman probes and primers for the experiments here-in described were supplied as pre-validated sets by Applied Biosystems, Inc. (see Table 2).
The assays were performed on an ABI 7900 instrument, according to the manufacturer's instructions. A TaqMan Gene Expression Master Mix (provided in the Cells-to-CT™, Applied Biosystems, Cat #4399002) was used. The PCR reactions were carried out at 50° C. for 2 min, 95° C. for 20 min followed by 40 cycles at 95° C. for 15 secs and 60° C. for 1 min.
The expression level of the gene of interest and % knock-down was calculated using Comparative Ct method: […]
These same three siNAs were tested for specificity in the human MCF7 cell line at 10 nM concentration to determine the effect of the GATA3 siNAs on the mRNA transcript of human GAPDH. In this assay, the samples from the primary screen, discussed above, O-Actin, a ubiquitously expressed ‘house-keeping’ gene, served as an endogenous control for normalization of the data.

30260-DC: GATA3 siNA duplex, site 1691: sense B GcAuGAcucAcuGGAGGAc TTB (SEQ 73), antisense GUCcuccAGuGAGucAuGcUU (SEQ 74) (sense GCAUGACUCACUGGAGGACTT; antisense GUCCUCCAGUGAGUCAUGCUU; chemistry not fully specified)
% KD Human ([1]; * Hs00231122_m1 Taqman Assay): 60 ± 1* % | % KD Human ([1]; ** Hs00922328_m1 Taqman Assay): 69 ± 9** % | IC50 [1]: 254 ± 212 pM | % KD GATA3 mRNA at 10 nM [1]: 60 ± 1% | % KD GATA3 10 nM [1]: 60 ± 1% | Density (GATA3)/Density (α-Tubulin) [2]: 0.025 ± 0.0007 | % KD Mouse [3]: 47 ± 0% | % KD GAPDH 10 nM [4]: −38 ± 9%

30261-DC: GATA3 siNA duplex, site 1637: sense B cAuccAGAccAGAAAccGA TTB (SEQ 75), antisense UCGGuuucuGGucuGGAuGUU (SEQ 76) (sense CAUCCAGACCAGAAACCGATT; antisense UCGGUUUCUGGUCUGGAUGUU; chemistry not fully specified)
% KD Human ([1]; * Hs00231122_m1 Taqman Assay): 77 ± 4* % | % KD Human ([1]; ** Hs00922328_m1 Taqman Assay): 77 ± 4** % | IC50 [1]: 51 ± 30 pM | % KD GATA3 mRNA at 10 nM [1]: 77 ± 4% | % KD GATA3 10 nM [1]: 77 ± 4% | Density (GATA3)/Density (α-Tubulin) [2]: 0.01 ± 0.00004 | % KD Mouse [3]: 72 ± 2% | % KD GAPDH 10 nM [4]: −17 ± 1%
